Measured values as given in ChEMBL document CHEMBL3431459, “Roche carnitine palmitoyltransferase modulator screening data (supplementary data associated with the publication CHEMBL2216752)”.
≈ marks a conversion by molar mass, not a printed value.

Legend:
[1] = SUPPLEMENTARY: Lyophilisation Solubility Assay (LYSA); format: physicochemical; details: read-out: Kinetic_solubility
[2] = biological target: T1, Carnitine O-palmitoyltransferase 2, mitochondrial (Homo sapiens, UniProt P23786); experiment: (§1) SUPPLEMENTARY: Inhibition of Carnitine palmitoyltransferase 2
T1 sequence (P23786 whole entry): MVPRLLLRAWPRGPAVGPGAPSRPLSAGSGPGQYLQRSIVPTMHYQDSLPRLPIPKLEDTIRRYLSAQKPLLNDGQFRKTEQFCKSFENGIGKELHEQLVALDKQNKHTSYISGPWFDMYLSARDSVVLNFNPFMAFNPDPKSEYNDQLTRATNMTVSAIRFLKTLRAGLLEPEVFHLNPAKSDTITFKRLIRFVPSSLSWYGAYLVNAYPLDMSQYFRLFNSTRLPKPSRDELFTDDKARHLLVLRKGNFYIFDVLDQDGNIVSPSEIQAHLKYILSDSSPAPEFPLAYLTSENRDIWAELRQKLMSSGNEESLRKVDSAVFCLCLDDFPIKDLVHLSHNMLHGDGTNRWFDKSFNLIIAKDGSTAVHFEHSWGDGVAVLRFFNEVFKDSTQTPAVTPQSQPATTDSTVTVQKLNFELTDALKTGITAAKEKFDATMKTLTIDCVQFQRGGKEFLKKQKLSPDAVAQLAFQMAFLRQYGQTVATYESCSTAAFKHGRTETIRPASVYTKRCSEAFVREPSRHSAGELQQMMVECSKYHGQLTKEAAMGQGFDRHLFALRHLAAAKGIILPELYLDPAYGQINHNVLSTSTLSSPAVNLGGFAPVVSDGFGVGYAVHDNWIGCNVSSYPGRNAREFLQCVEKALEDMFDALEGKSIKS

[3] = biological target: T2, Carnitine O-palmitoyltransferase 2, mitochondrial (Rattus norvegicus, UniProt P18886); experiment: as §1
T2 sequence (P18886 whole entry): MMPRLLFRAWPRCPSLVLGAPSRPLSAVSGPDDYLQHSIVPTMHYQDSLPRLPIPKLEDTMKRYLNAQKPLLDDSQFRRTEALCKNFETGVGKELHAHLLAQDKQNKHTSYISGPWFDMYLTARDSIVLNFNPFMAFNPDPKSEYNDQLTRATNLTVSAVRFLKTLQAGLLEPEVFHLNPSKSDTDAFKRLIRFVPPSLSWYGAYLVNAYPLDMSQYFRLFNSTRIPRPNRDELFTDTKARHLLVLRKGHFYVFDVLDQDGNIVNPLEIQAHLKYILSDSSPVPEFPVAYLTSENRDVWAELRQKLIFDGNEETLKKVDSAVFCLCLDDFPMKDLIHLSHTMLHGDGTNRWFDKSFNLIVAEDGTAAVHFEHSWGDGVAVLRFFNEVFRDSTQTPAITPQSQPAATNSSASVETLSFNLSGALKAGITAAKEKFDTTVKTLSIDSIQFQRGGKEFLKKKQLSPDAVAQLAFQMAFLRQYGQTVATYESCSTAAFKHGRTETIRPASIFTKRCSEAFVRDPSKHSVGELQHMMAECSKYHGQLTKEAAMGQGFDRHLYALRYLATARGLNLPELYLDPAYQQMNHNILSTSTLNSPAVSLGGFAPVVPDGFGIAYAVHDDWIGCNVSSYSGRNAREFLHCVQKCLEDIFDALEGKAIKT

[4] = biological target: T3, Carnitine O-palmitoyltransferase 1, liver isoform (Homo sapiens, UniProt P50416); experiment: (§2) SUPPLEMENTARY: Inhibition of Carnitine palmitoyltransferase 1, liver isoform
T3 sequence (P50416 whole entry): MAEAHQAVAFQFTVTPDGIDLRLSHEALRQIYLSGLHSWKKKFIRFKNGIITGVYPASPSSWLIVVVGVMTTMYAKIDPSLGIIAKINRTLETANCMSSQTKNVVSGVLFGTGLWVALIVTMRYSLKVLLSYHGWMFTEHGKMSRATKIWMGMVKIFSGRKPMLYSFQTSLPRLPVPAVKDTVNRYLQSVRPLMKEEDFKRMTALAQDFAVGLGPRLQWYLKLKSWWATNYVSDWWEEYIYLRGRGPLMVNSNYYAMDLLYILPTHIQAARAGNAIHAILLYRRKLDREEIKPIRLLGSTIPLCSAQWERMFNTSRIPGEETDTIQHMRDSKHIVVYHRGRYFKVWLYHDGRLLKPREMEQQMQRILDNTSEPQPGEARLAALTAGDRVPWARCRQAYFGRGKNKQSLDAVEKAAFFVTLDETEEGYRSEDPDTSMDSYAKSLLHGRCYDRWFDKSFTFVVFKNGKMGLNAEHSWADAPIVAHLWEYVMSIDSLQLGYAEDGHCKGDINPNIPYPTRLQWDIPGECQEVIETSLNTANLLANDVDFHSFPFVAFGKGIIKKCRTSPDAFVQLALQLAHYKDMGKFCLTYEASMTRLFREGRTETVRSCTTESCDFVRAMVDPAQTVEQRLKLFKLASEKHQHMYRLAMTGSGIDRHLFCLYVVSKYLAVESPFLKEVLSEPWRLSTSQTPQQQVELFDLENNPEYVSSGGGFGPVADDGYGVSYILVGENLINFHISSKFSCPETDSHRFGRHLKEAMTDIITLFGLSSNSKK

[5] = biological target: T4, Carnitine O-palmitoyltransferase 1, liver isoform (Rattus norvegicus, UniProt P32198); experiment: as §2
T4 sequence (P32198 whole entry): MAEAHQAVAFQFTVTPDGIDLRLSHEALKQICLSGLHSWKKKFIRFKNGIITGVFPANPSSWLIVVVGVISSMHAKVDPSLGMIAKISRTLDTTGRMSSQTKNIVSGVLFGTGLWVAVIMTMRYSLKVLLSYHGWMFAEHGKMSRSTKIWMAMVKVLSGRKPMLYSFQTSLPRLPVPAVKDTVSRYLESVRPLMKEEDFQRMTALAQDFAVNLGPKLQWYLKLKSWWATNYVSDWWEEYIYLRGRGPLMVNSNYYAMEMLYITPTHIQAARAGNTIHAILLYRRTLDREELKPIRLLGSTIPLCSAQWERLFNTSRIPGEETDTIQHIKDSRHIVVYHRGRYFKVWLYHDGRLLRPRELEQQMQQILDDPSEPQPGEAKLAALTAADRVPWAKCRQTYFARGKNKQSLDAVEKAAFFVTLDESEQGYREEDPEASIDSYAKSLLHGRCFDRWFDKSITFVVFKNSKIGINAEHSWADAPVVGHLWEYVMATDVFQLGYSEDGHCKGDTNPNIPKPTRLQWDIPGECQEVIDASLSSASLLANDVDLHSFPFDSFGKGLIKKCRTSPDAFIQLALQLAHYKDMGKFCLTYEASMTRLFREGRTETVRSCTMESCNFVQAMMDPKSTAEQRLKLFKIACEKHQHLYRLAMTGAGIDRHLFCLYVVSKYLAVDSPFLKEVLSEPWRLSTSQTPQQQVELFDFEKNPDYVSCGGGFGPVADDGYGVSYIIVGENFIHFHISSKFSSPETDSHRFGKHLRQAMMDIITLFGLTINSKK

[6] = SUPPLEMENTARY: PAMPA permeability assay; format: physicochemical; details: read-out: Permeability
[7] = biological target: T5, Carnitine O-palmitoyltransferase 1, muscle isoform (Homo sapiens, UniProt Q92523); experiment: SUPPLEMENTARY: Inhibition of Carnitine palmitoyltransferase 1, muscle isoform; parameters: species or system Muscle tissue
T5 sequence (Q92523 whole entry): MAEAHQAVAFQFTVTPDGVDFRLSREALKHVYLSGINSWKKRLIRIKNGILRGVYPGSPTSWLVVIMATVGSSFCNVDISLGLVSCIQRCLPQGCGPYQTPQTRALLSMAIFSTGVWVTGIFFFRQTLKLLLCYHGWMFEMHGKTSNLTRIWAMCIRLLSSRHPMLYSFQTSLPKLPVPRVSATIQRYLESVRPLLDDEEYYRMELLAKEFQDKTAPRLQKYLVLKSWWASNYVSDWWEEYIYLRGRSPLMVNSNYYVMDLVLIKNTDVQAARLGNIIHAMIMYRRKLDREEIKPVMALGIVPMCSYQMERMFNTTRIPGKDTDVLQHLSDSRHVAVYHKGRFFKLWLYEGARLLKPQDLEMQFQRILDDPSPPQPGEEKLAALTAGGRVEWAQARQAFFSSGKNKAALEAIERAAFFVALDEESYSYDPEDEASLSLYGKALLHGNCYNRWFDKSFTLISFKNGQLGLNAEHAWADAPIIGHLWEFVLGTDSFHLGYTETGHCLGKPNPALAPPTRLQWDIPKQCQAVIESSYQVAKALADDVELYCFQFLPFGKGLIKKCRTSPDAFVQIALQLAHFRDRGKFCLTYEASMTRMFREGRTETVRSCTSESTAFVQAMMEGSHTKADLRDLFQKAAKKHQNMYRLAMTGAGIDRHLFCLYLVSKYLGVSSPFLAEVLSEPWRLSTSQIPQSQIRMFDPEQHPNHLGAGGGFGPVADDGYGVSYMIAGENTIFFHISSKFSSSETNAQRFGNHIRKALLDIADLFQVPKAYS

[8] = SUPPLEMENTARY: Lipophilicity (log D) Determination by high-throughput shake-flask; format: physicochemical; details: octanol/water

Row | solubility kinetic [1] | IC50 [2] | IC50 [3] | IC50 [4] | IC50 [5] | Papp [6] | IC50 [7] | logD [8] | Structure (SMILES)
1 | 73 µg/mL (≈ 175 µM) | 39.8 µM | 42.9 µM | 0.211 µM | 1.15 µM | 3.29 ×10⁻⁶ cm/s | > 100 µM | 2.35 | O=C1Cc2ccc(-c3n[nH]c([C@H]4CCCCN4C(=O)COc4ccccc4)n3)cc2N1
2 | 9 µg/mL (≈ 17.7 µM) | 32 µM | 72.2 µM | 0.167 µM | 0.0795 µM | 1.99 ×10⁻⁶ cm/s | 42.2 µM | 2.77 | O=C(Nc1ccc(C(=O)O)c(F)c1)c1ccc2c(c1)N(S(=O)(=O)c1cccc(C(F)(F)F)c1)CC2
3 | > 579 µg/mL | 0.966 µM | 3.41 µM | 0.132 µM | 0.0926 µM | 1.2 ×10⁻⁶ cm/s | 0.755 µM | 0.26 | COc1ccc(Cl)cc1S(=O)(=O)N1CCc2ccc(C(=O)Nc3ccc(C(=O)O)c(Cl)c3)cc21
4 | 16 µg/mL (≈ 30.4 µM) | 2.46 µM | 3.35 µM | 0.0902 µM | 0.0651 µM | 1.89 ×10⁻⁶ cm/s | 3.83 µM | 2.67 | O=C(Nc1ccc(C(=O)O)c(Cl)c1)c1ccc2c(c1)N(S(=O)(=O)c1cc(Cl)cc(Cl)c1)CC2
5 | 60 µg/mL (≈ 120 µM) | 4.43 µM | 8.13 µM | 0.152 µM | 0.0909 µM | 1.62 ×10⁻⁶ cm/s | 5.18 µM | 0.88 | COc1ccc(C)cc1S(=O)(=O)N1CCCc2ccc(C(=O)Nc3ccc(C(=O)O)c(F)c3)cc21
6 | 182 µg/mL (≈ 351 µM) | 2.8 µM | 10.2 µM | 0.0381 µM | 0.0477 µM | 1.77 ×10⁻⁶ cm/s | 3.02 µM | 0.55 | COc1ccc(Cl)cc1S(=O)(=O)N1CCCc2ccc(C(=O)Nc3ccc(C(=O)O)c(F)c3)cc21
7 | 13 µg/mL (≈ 26.4 µM) | 3.23 µM | 42.4 µM | 0.127 µM | 0.0804 µM | 0.27 ×10⁻⁶ cm/s | > 100 µM | -0.34 | COc1ccc(Cl)cc1S(=O)(=O)Nc1cc(C(=O)Nc2ccc(C(=O)O)cc2)cn(C)c1=O
8 | 367 µg/mL (≈ 907 µM) | > 100 µM | > 100 µM | 0.132 µM | 9.64 µM | 1.53 ×10⁻⁶ cm/s | > 100 µM | 1.63 | O=C(COc1ccccc1)N1CCNC[C@@H]1c1nc(-c2ccc3[nH]cnc3c2)no1
9 | 312 µg/mL (≈ 745 µM) | 58.9 µM | 93.5 µM | 0.105 µM | 0.306 µM | 2.77 ×10⁻⁶ cm/s | > 100 µM | 1.09 | O=C1Cc2cc(-c3noc([C@H]4CNCCN4C(=O)COc4ccccc4)n3)ccc2N1
10 | 161 µg/mL (≈ 423 µM) | 97.9 µM | > 100 µM | 0.325 µM | 1.19 µM | 4.75 ×10⁻⁶ cm/s | > 100 µM | 1.83 | O=C(COc1ccccc1)N1CCCC[C@@H]1c1nc(-c2ccc(=O)[nH]c2)no1
11 | 5 µg/mL (≈ 11.2 µM) | > 100 µM | > 100 µM | 0.0635 µM | 1.07 µM | 2.35 ×10⁻⁶ cm/s | > 100 µM | 3.04 | NC(=O)c1n[nH]c2cc(-c3noc([C@H]4CCCCN4C(=O)COc4ccccc4)n3)ccc12
12 | 397 µg/mL (≈ 972 µM) | 96.3 µM | > 100 µM | 0.226 µM | 4.51 µM | 0.07 ×10⁻⁶ cm/s | > 100 µM | -1.07 | O=C(O)c1cncc(-c2noc([C@H]3CCCCN3C(=O)COc3ccccc3)n2)c1

Row | Structure (SMILES) | solubility kinetic [1] | IC50 [2] | IC50 [3] | IC50 [4] | IC50 [5] | Papp [6] | IC50 [7] | logD [8]
13 | CN1CCN(C(=O)COc2ccccc2)[C@@H](c2nc(-c3ccc4c(c3)CC(=O)N4)no2)C1 | 73 µg/mL (≈ 168 µM) | 16.5 µM | 35 µM | 0.137 µM | 0.305 µM | 3.38 ×10⁻⁶ cm/s | > 100 µM | 1.91
14 | CN1CCN(C(=O)COc2ccccc2)[C@@H](c2nc(-c3ccc4[nH]nnc4c3)no2)C1 | 167 µg/mL (≈ 398 µM) | > 100 µM | > 100 µM | 0.0246 µM | 0.265 µM | 3.75 ×10⁻⁶ cm/s | > 100 µM | 1.86
